Assay [1] concerns the target T1, 5-hydroxytryptamine receptor 1A (Rattus norvegicus, UniProt P19327).
T1 sequence (P19327 whole entry): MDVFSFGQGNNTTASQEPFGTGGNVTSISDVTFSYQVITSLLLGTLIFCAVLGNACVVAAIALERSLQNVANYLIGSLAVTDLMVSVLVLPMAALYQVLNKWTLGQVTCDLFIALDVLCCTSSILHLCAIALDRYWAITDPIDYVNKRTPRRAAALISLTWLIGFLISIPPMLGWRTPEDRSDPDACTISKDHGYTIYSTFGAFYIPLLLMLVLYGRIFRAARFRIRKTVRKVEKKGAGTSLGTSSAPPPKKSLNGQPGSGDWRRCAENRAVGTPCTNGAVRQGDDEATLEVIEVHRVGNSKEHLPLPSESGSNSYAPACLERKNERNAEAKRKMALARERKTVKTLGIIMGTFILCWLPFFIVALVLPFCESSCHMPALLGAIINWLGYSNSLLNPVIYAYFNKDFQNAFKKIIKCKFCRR
Kind of assay: Binding affinity to 5HT1A receptor in rat hippocampus. It is filed as tissue-based.

The target of assay [2] is 5-hydroxytryptamine receptor 2A (Rattus norvegicus, UniProt P14842). Kind of assay: Binding affinity to 5HT2A receptor in rat cortex. The class given is tissue-based.
In assay [3] the target is 5-hydroxytryptamine receptor 7 (Homo sapiens, UniProt P34969). Kind of assay: Binding affinity to human cloned 5HT7 receptor expressed in HEK293 cells. The class given is cell-based.
A short description of assay [4]: Selectivity of Ki for human 5HT7 receptor to Ki for rat 5HT1A.

5-hydroxytryptamine receptor 7, sequence (P34969 whole entry): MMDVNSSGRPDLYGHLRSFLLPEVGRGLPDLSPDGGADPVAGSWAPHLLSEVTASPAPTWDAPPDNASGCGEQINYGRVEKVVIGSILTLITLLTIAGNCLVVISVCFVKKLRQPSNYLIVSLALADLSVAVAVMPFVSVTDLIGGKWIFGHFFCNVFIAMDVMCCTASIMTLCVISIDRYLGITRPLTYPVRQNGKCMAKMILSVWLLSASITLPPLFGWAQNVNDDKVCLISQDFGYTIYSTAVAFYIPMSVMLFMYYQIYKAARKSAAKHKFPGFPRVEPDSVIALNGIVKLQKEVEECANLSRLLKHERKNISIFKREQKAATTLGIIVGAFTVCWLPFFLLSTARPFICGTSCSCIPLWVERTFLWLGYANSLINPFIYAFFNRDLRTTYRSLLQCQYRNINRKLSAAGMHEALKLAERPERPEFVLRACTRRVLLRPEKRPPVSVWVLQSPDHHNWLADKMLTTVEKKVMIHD
5-hydroxytryptamine receptor 2A, sequence (P14842 whole entry): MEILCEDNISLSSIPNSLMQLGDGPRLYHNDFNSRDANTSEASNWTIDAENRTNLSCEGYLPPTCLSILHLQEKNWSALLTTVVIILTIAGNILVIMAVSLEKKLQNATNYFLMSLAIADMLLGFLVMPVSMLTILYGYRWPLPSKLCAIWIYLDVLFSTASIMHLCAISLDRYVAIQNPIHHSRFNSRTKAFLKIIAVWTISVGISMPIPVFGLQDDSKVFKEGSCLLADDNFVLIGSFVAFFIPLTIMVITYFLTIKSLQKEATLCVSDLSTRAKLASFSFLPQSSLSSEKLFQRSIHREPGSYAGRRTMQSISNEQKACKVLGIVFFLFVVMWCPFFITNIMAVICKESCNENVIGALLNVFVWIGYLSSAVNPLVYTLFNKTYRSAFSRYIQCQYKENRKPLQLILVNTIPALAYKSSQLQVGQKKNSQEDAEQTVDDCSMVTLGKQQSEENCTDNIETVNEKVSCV

As a reminder, the Ki is the dissociation constant of the complex between target and ligand, obtained from inhibition or displacement. Read a high Ki as a looser hold on the target. For `COc1ccccc1N1CCN(C(N)=NCCCNS(=O)(=O)c2cccc3ccccc23)CC1`, the Ki is 9860 nM in assay [1], 940 nM in assay [2] and 195 nM in assay [3].

With `COc1ccccc1N1CCN(C(N)=NCCNS(=O)(=O)c2cccc(C)c2)CC1`, the Ki in assay [1] is 10400 nM; in assay [2], 1150 nM; in assay [3] it was 339 nM.

With `Cc1cccc(S(=O)(=O)NCCCN=C(N)N2CCC(c3ccccc3)CC2)c1`, the values for the Ki in assay [1], in assay [2] and in assay [3] were 17600 nM, 1250 nM and 276 nM, respectively.

`CCOc1ccccc1CNC(=N)NC(=O)NC`: the figures for the Ki in assay [1], in assay [2] and in assay [3] were greater than 4000 nM, 400 nM and 49 nM, respectively.

On to `Cc1cccc(S(=O)(=O)NCCCCN=C(N)N2CCC(c3ccccc3)CC2)c1`, for which the Ki in assay [1] amounted to 12000 nM; in assay [2], 770 nM; in assay [3], 150 nM.

In the case of `Cc1cccc(S(=O)(=O)NCCN=C(N)N2CCC(c3ccccc3)CC2)c1`, the Ki is 4550 nM in assay [1], 160 nM in assay [2] and 161 nM in assay [3].

For `COc1ccccc1N1CCN(C(=N)NCCNS(=O)(=O)c2cccc(C)c2)CC1`, in assay [4], the Ratio Ki amounted to 31.

On to `COc1ccccc1N1CCN(C(=O)NC(=N)NCc2cccc3ccccc23)CC1`, for which the figures for the inhibition constant (Ki) in assay [1] and in assay [2] were 520 nM and 150 nM, respectively.

As to `O=S(=O)(c1ccccc1)C1(CCCN2CCc3ccccc3C2)CCC1`, the Ki worked out at 35 nM in assay [1] and 65 nM in assay [2].

As to `Cc1cccc(S(=O)(=O)NCCN=C(N)N2CCC(C)CC2)c1`, the Ki in assay [1] was 1100 nM; in assay [2], 148 nM; in assay [3], 177 nM.

For `CC1CCN(CCC2CCCN2S(=O)(=O)c2cccc(O)c2)CC1` (single isomer, unassigned), the Ki in assay [1] and in assay [2] was greater than 10000 nM each time.

For `NC(=NCCCCNS(=O)(=O)c1cccc2ccccc12)N1CCc2ccccc2C1`, the Ki stood at 2080 nM in assay [1], 195 nM in assay [2] and 198 nM in assay [3].

`COc1ccccc1N1CCN(C(=N)NCCCCNS(=O)(=O)c2ccc(C)cc2)CC1`: the Ki in assay [1] was 10200 nM; in assay [2], 340 nM; in assay [3] it was 140 nM.

Consider `COc1ccccc1N1CCN(CCCNS(=O)(=O)c2ccc3ccccc3c2)CC1`, for which the figures for the Ki in assay [1], in assay [2] and in assay [3] were 4.6 nM, 85 nM and 20 nM, respectively.

The record behind these values is ChEMBL document CHEMBL1154019, “Sulfonamides with the N-alkyl-N'-dialkylguanidine moiety as 5-HT7 receptor ligands” (Bioorg Med Chem Lett, 2009).
